Measured values from ChEMBL document CHEMBL1133233, “The design and synthesis of thrombin inhibitors: the introduction of in vivo efficacy and oral bioavailability into benzthiazolylalanine inhibitors” (Bioorg Med Chem Lett, 2000).
Values after ≈ are worked out from the molar mass of the structure shown.

Legend:
[1] = Effectiveness to inhibit coagulation in plasma measured as activated partial thromboplastin time (APTT); type: functional
Prothrombin = Prothrombin (Homo sapiens, UniProt P00734); assay: Evaluated for the binding affinity against thrombin
Rattus norvegicus [2] = assay: Inhibition of platelet deposition was determined on arterial thrombosis in the rat at 20 mg/kg oral administration using an acute model of injury induced thrombus formation; type: functional; conditions: read-out: Inhibition
Rattus norvegicus [3] = assay: Inhibition of fibrin deposition was determined after 1 hr on arterial thrombosis in the rat at 20 mg/kg oral administration using an acute model of injury induced thrombus formation; type: functional
Rattus norvegicus [4] = assay: Inhibition of fibrin deposition was determined after 2 hr on arterial thrombosis in the rat at 20 mg/kg oral administration using an acute model of injury induced thrombus formation; type: functional
Rattus norvegicus [5] = assay: Inhibition of platelet deposition was determined on arterial thrombosis in the rat at 10 mg/kg oral administration using an acute model of injury induced thrombus formation; type: functional
[6] = Bioavailability in rat (intraduodenal administration); type: ADME, organism-based; conditions: in vivo
[7] = Oral bioavailability in rat; type: ADME, organism-based; conditions: in vivo
[8] = Aqueous solubility at pH 2; type: physicochemical
[9] = Aqueous solubility at pH 7; type: physicochemical
Plasminogen = Plasminogen (Homo sapiens, UniProt P00747); assay: Inhibitory activity against plasmin
Plasminogen, sequence (P00747 97-580 limits assumed): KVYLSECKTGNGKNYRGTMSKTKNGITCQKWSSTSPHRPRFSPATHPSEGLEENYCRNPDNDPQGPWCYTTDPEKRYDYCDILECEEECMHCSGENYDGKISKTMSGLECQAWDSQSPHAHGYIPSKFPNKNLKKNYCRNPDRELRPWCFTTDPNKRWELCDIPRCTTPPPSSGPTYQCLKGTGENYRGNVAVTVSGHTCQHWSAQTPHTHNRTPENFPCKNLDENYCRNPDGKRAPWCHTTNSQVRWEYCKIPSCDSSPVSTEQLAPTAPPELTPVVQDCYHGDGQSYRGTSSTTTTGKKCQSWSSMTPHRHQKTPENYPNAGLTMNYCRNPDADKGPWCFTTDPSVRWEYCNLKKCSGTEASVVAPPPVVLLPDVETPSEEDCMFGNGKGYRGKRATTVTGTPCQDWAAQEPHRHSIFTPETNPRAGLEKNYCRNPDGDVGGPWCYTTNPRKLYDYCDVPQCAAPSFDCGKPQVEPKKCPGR
Plasminogen, sequence (P00747 581-810 limits assumed): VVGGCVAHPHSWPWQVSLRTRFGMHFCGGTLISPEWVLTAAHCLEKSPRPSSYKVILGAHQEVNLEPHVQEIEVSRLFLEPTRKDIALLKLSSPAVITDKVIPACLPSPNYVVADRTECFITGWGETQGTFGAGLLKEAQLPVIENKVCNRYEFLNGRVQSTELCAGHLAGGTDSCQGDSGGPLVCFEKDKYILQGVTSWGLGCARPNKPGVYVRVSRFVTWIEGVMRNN

Serine protease 1 = Serine protease 1 (Homo sapiens, UniProt P07477); assay: Inhibitory activity against trypsin
Serine protease 1, sequence (P07477 whole entry): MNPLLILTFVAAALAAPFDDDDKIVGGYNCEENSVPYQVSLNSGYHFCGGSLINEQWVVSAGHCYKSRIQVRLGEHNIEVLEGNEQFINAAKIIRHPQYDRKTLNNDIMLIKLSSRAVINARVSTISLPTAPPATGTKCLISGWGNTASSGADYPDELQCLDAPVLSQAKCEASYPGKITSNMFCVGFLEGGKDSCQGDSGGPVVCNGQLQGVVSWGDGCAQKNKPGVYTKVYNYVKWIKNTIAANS

[10] = Inhibitory activity against TF/VIIa
Coagulation factor X = Coagulation factor X (Homo sapiens, UniProt P00742); assay: Inhibitory activity against Coagulation factor X
Coagulation factor X, sequence (P00742 41-179 limits assumed): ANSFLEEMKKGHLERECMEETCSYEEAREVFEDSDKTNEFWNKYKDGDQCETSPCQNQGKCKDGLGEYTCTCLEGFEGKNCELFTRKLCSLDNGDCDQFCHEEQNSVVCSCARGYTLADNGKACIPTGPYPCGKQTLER
Coagulation factor X, sequence (P00742 235-488 limits assumed): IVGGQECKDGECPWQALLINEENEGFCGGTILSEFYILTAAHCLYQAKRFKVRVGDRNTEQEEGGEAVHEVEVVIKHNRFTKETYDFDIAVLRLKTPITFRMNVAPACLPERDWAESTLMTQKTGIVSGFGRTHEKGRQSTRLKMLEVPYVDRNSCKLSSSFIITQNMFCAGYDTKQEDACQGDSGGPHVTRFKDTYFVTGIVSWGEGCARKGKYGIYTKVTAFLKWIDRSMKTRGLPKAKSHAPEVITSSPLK

SMILES | Ki (Prothrombin) | APTT [1] | further results
CC1(C)CNc2c(cc(CCC(=O)N3CCN(CC(=O)N4CCOCC4)CC3)cc2S(=O)(=O)N[C@@H](Cc2nc3ccccc3s2)C(=O)N2CCC(CCF)CC2)C1 [listing 1 of 2 here] | – | – | inhibition in vivo at 20 mg/kg (Rattus norvegicus [2]): 60%; inhibition in vivo at 20 mg/kg (Rattus norvegicus [3]): 48%; inhibition in vivo at 20 mg/kg (Rattus norvegicus [4]): 43%; inhibition in vivo at 10 mg/kg (Rattus norvegicus [5]): 60%
CC1(C)CNc2c(cc(CCCO)cc2S(=O)(=O)N[C@@H](Cc2nc3ccccc3s2)C(=O)N2CCC(CCF)CC2)C1 | 0.119 µM | 19 µM | –
CN(C)C(=O)CCc1cc2c(c(S(=O)(=O)N[C@@H](Cc3nc4ccccc4s3)C(=O)N3CCC(CCF)CC3)c1)NCC(C)(C)C2 | 0.034 µM | 9.2 µM | –
CC1(C)CNc2c(cc(CCO)cc2S(=O)(=O)N[C@@H](Cc2nc3ccccc3s2)C(=O)N2CCC(CCF)CC2)C1 | 0.039 µM | 13.7 µM | –
CC1(C)CNc2c(cc(CCC(=O)N3CCN(CC(=O)N4CCOCC4)CC3)cc2S(=O)(=O)N[C@@H](Cc2nc3ccccc3s2)C(=O)N2CCC(CCF)CC2)C1 [listing 2 of 2 here] | 0.057 µM | 7 µM | bioavailability [6]: 38%; bioavailability [7]: 28%; solubility [8]: 15000 µg/mL (≈ 18200 µM); solubility [9]: 130 µg/mL (≈ 157 µM); Ki (Plasminogen): 212 µM; Ki (Serine protease 1): 153 µM; Ki [10]: 11600 µM; Ki (Coagulation factor X): ≥ 200 µM
CNC(=O)OCc1cc2c(c(S(=O)(=O)N[C@@H](Cc3nc4ccccc4s3)C(=O)N3CCC(CCF)CC3)c1)NCC(C)(C)C2 | 0.077 µM | 20.7 µM | –
CC1(C)CNc2c(cc(CC(=O)O)cc2S(=O)(=O)N[C@@H](Cc2nc3ccccc3s2)C(=O)N2CCC(CCF)CC2)C1 | 0.5 µM | 14.9 µM | –
CC1(C)CNc2c(cc(CCCC(=O)O)cc2S(=O)(=O)N[C@@H](Cc2nc3ccccc3s2)C(=O)N2CCC(CCF)CC2)C1 | 0.094 µM | 16.6 µM | –
CC1(C)CNc2c(cc(CCC(=O)O)cc2S(=O)(=O)N[C@@H](Cc2nc3ccccc3s2)C(=O)N2CCC(CCF)CC2)C1 | 0.082 µM | 10.7 µM | bioavailability [6]: 50%; bioavailability [7]: 0%; solubility [9]: 5.15 µg/mL (≈ 8.16 µM)
CC1(C)CNc2c(cccc2S(=O)(=O)N[C@@H](Cc2nc3ccccc3s2)C(=O)N2CCC(CCF)CC2)C1 | – | 26.5 µM | –
CC1(C)CNc2c(cccc2S(=O)(=O)N[C@@H](CCCN=C(N)N)C(=O)N2CCC(CCF)CC2)C1 [CGH-728] | 0.006 µM | 2.1 µM | –
CCOC(=O)c1cc2c(c(S(=O)(=O)N[C@@H](Cc3nc4ccccc4s3)C(=O)N3CCC(CCF)CC3)c1)NCC(C)(C)C2 | – | 105.4 µM | –

Second part, led by results:

Ki (Prothrombin) | SMILES | APTT [1] | further results
0.047 µM | CC1(C)CNc2c(cc(CCNC(N)=O)cc2S(=O)(=O)N[C@@H](Cc2nc3ccccc3s2)C(=O)N2CCC(CCF)CC2)C1 | 10.2 µM | –
0.064 µM | CC1(C)CNc2c(cc(CO)cc2S(=O)(=O)N[C@@H](Cc2nc3ccccc3s2)C(=O)N2CCC(CCF)CC2)C1 | 16.8 µM | –
0.027 µM | CC1(C)CNc2c(cc(CCC(=O)N3CCN(Cc4ccncc4)CC3)cc2S(=O)(=O)N[C@@H](Cc2nc3ccccc3s2)C(=O)N2CCC(CCF)CC2)C1 | 9.7 µM | –
0.125 µM | COCCOCOCc1cc2c(c(S(=O)(=O)N[C@@H](Cc3nc4ccccc4s3)C(=O)N3CCC(CCF)CC3)c1)NCC(C)(C)C2 | 18 µM | –
0.359 µM | CC1(C)CNc2c(cc(C(=O)O)cc2S(=O)(=O)N[C@@H](Cc2nc3ccccc3s2)C(=O)N2CCC(CCF)CC2)C1 | 13 µM | –
0.034 µM | CC(=O)N1CCN(C(=O)CCc2cc3c(c(S(=O)(=O)N[C@@H](Cc4nc5ccccc5s4)C(=O)N4CCC(CCF)CC4)c2)NCC(C)(C)C3)CC1 | 7.5 µM | –
